Data set [1] is described as follows: Plasma concentration in cynomolgus monkey at 0.1 mg/kg, iv after 5 mins by LC-MS/MS analysis. The class given is ADME, organism-based, Macaca fascicularis.
Data set [2] in a line: Plasma concentration in Crl:CD(SD) rat at 0.1 mg/kg, iv after 5 mins by LC-MS/MS analysis. It counts as ADME, organism-based.
Data set [3] in a line: MRT in Beagle dog at 1 mg/kg, po by LC-MS/MS analysis. It counts as ADME, organism-based, Canis lupus familiaris. Conditions: in vivo.
A short description of data set [4]: AUC (0 to 24 hrs) in Beagle dog at 1 mg/kg, po by LC-MS/MS analysis. It counts as ADME, organism-based, Canis lupus familiaris. Further details: time < 24 hr, dose 1 mg/kg, route oral. Conditions: in vivo.
Data set [5] is described as follows: MRT in cynomolgus monkey at 1 mg/kg, po by LC-MS/MS analysis. It counts as ADME, organism-based, Macaca fascicularis. Conditions: in vivo.
Data set [6] concerns Canis familiaris. Nature of the data set: Toxicity in Beagle dog administered via oral gavage. Conditions: in vivo. Further details: species or system Canis lupus familiaris.
The subject of data set [7] is Canis familiaris. Nature of the data set: Toxicity in iv dosed Beagle dog assessed as effect on mean blood pressure administered via single dose. Conditions: in vivo. The class given is organism-based, Canis lupus familiaris.
Data set [8] has as its system Rattus norvegicus. Nature of the data set: Androgenic activity in castrated CD(SD)IGS rat assessed as prostate weight at 2.5 mg/kg, po bid for 4 days co-treated with testosterone propionate by Harshberger assay relative to control. The class given is organism-based. Conditions: in vivo, 96 h.
The target in data set [9] is T1, Progesterone receptor (Homo sapiens, UniProt P06401).
T1 sequence (P06401 whole entry): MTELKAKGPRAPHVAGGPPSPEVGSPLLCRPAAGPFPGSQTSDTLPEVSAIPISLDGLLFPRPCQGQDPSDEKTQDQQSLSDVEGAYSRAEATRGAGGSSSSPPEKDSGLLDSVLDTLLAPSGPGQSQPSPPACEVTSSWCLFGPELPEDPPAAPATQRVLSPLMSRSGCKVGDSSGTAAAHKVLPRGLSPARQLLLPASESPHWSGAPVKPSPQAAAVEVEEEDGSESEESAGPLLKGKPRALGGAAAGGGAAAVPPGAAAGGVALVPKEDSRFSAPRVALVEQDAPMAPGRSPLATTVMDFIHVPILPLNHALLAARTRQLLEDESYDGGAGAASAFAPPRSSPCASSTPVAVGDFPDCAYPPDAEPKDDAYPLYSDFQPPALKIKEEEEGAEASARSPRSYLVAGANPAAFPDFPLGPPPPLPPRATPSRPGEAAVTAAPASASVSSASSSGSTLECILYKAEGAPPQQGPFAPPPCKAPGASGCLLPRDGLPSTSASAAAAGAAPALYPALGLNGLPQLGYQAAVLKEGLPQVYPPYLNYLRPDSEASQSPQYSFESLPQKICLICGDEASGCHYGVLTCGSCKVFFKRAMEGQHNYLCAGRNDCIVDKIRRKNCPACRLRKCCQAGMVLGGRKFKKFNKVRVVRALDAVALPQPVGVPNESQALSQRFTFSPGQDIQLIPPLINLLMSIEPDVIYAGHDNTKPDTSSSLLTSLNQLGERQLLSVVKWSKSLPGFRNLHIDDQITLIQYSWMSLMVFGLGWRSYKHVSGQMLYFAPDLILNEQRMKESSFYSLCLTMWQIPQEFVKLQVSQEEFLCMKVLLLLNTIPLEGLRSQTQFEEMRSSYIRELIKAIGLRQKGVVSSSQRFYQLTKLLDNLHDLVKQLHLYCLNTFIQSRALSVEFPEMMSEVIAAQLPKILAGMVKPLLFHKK
Nature of the data set: Agonist activity at PR (unknown origin) by luciferase reporter gene assay. In general terms: In a reporter assay the amount or activity of a reporter protein is the signal.

Data set [10] can be described thus: Volume of distribution at steady state in Crl:CD(SD) rat at 0.1 mg/kg, iv by LC-MS/MS analysis. It counts as ADME, organism-based. Conditions: in vivo, read-out: Vdss.
A short description of data set [11]: Cmax in cynomolgus monkey at 1 mg/kg, po by LC-MS/MS analysis. It counts as ADME, organism-based, Macaca fascicularis. Further details: dose 1 mg/kg, route oral. Conditions: in vivo.
A short description of data set [12]: MRT in Beagle dog at 0.1 mg/kg, iv by LC-MS/MS analysis. The class given is ADME, organism-based, Canis lupus familiaris. Conditions: in vivo.
For data set [13], the system named is Rattus norvegicus. As to the kind of experiment: Induction of sexual behavior in castrated CD(SD)IGS rat assessed as pseudopregnancy rate at 0.5 mg/kg, po qd for 21 days measured on day 18 to 21 relative to control. The class given is functional.
The nature of data set [14]: MRT in Crl:CD(SD) rat at 1 mg/kg, po by LC-MS/MS analysis. Conditions: in vivo. The class given is ADME, organism-based.
Data set [15] in a line: Cmax in Beagle dog at 1 mg/kg, po by LC-MS/MS analysis. The class given is ADME, organism-based, Canis lupus familiaris. Further details: dose 1 mg/kg, route oral. Conditions: in vivo.
A short description of data set [16]: Clearance in human liver microsomes at 1 uM after 60 mins in presence of NADPH by UPLC analysis. The class given is ADME, microsome. Conditions: read-out: CLH. (Microsomes from liver hold many membrane-bound enzymes, among them those of drug oxidation.)
Data set [17] in a line: Total clearance in Crl:CD(SD) rat at 0.1 mg/kg, iv by LC-MS/MS analysis. It counts as ADME, organism-based. Conditions: in vivo.
Data set [18] can be described thus: Oral bioavailability in Beagle dog at 1 mg/kg by LC-MS/MS analysis. Conditions: in vivo. The class given is ADME, organism-based, Canis lupus familiaris.
The target of data set [19] is T2, Mineralocorticoid receptor (Homo sapiens, UniProt P08235).
T2 sequence (P08235 whole entry): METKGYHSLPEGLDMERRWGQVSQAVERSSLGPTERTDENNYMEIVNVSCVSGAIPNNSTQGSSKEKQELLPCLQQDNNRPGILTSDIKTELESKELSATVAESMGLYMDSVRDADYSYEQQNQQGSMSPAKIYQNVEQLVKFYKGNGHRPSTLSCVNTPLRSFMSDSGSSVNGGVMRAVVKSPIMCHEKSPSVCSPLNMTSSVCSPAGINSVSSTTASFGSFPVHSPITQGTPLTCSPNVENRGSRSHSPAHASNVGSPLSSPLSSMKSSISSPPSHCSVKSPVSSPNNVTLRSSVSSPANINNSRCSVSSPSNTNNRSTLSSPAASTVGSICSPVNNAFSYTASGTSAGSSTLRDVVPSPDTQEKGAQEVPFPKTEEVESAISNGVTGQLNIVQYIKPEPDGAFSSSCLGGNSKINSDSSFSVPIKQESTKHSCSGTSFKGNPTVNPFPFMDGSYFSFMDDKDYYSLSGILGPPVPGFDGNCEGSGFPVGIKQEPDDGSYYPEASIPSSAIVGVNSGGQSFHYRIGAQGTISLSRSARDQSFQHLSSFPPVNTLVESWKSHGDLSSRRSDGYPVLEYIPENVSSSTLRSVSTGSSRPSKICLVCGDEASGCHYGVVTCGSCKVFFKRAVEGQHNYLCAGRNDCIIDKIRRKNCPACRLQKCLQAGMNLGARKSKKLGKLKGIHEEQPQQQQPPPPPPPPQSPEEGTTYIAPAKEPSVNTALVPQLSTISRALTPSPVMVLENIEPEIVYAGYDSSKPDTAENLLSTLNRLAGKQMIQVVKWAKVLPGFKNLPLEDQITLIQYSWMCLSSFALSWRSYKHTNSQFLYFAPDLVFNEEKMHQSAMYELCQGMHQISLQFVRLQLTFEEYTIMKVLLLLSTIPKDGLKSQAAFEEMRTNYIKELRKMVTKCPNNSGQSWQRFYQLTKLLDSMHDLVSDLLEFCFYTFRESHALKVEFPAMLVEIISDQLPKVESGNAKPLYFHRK
As to the kind of experiment: Binding affinity to MR (unknown origin).

Data set [20] concerns Rattus norvegicus. Nature of the data set: Induction of sexual behavior in castrated CD(SD)IGS rat assessed as pseudopregnancy rate at 1.5 mg/kg, po qd for 21 days measured on day 18 to 21 relative to control. It counts as functional.
The test system of data set [21] is Rhesus monkey. As to the kind of experiment: Toxicity in monkey assessed as myocardial necrosis administered via oral gavage. Further details: species or system Macaca mulatta. Conditions: in vivo.

Results on 1 compound are retold here after ChEMBL document CHEMBL4020736, “Synthesis and biological evaluation of novel selective androgen receptor modulators (SARMs) Part III: Discovery of 4-(5-oxopyrrolidine-1-yl)benzonitrile derivative 2f as a clinical candidate” (Bioorg Med Chem, 2017).

For the compound `CC[C@H]1[C@@H](O)CC(=O)N1c1ccc(C#N)c(C(F)(F)F)c1`, the results for the concentration at 5 min in data set [1] and in data set [2] were 72.9 ng/mL and 70.8 ng/mL, respectively. The mean residence time (MRT) – broadly, a mean duration of stay, worked out from the concentration-time curve – in [3] was 4.34 h; in data set [5] it was 5.21 h; in data set [12], 4.84 h; in data set [14], 3.06 h. In addition, in data set [4], the AUC(0-t) (as a rule, exposure summed from dosing to a finite time, without extrapolation to infinity) at 24 h worked out at 1160 ng·h/mL. The Activity entry in data set [6] is “Non-Toxic”; in data set [7] it was “Non-Toxic”; in data set [8], 106%; in data set [13], 100%; in [20], 100%; in [21] it was “Toxic”. Moreover, in data set [9], the EC50 (commonly the concentration at which the effect is half-maximal) is above 10 µM. In addition, the Vd in [10] worked out at 2.17 L/kg. For the same compound, the maximum concentration (Cmax) (commonly the highest concentration seen after dosing) is 71.2 ng/mL in data set [11] and 265 ng/mL in data set [15]. Moreover, the microsomal CLint at 1 µM in [16] was 1 µL/min/mg. Also, the clearance (as a rule, a measure of how efficiently the substance is removed, as volume per time) in [17] is 15.6 mL/min/kg. Moreover, the bioavailability (usually dose-corrected exposure relative to a reference, in per cent) in data set [18] came out at 76.6%. Also, the IC50 (usually the concentration that gives 50% inhibition) in data set [19] was above 10 µM.
